{"source": "patent US9434688B2", "about": "“Indole derivatives as selective androgen receptor modulators (SARMS)” (Janssen Pharmaceutica, NV, priority 2004, dated 2016)", "key": {"[1]": {"biological_target": "T1, androgen receptor LBD (Panvera) (Rattus norvegicus, UniProt P15207)", "T1 construct": "5 pmol androgen receptor LBD (Panvera); purchased Panvera", "T1 sequence (P15207 651-882 limits assumed)": "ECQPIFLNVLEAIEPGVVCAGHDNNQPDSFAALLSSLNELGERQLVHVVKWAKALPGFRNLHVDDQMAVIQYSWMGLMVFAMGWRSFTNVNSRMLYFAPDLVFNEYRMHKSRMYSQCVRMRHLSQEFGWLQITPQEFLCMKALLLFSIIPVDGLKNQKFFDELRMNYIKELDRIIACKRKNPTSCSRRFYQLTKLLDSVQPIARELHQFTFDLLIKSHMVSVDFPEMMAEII", "assay": "Androgen Receptor Filtration Binding Assay (PANVERA)", "details": "[3H] R1881 tracer", "description": "The assay was run on a 96 well plate with each well filled with a total reaction volume 150 μL, of a solution containing 5 pmol androgen receptor LBD (Panvera) or 30 μL of freshly prepared rat cytosol, 0.5 nM [^3H] […] (TED buffer contains 10 mM Tris.HCl pH 7.4, 1 mM sodium molybdate, 1.5 mM EDTA, 1 mM DTT and 10% (v/v) glycerol.)\nOn day one, the solution containing receptor, tracer and TED buffer was distributed into a 96 well plate. Diluted test compound or control vehicle was then added to individual wells and the plate incubated at 4° C. overnight.\nOn day two, to each well was then added 20 μL human γ-globulin (ICN 823102), prepared at 25 mg/ml in TE pH 8.0, and 55 μL 40% polyethylene glycol 8000 (JT Baker U222-08), prepared in TE pH 8.0. The plate was incubated at 4° C. for 60 minutes. During incubation, the harvester was rinsed with 10% PEG 8000, prepared in TE pH 8.0, and a GF/C Unifilter-96 was pre-wet with 10% PEG. The binding reaction was filtered, the retentate was washed three times with 10% PEG and dried under vacuum for a couple of minutes, then dried at 50° C. for 5 min and the plate was bottom sealed. Next, 25 μL of Microscint-20 (Packard) was added to the filter wells and the plate was top sealed. The plate wells were then counted on a TopCount (Packard).\nCounts per well were measured and IC50s determined by linear regression."}, "androgen receptor": {"biological_target": "T2, androgen receptor (Rattus norvegicus, UniProt P15207)", "T2 sequence (P15207 1-902)": "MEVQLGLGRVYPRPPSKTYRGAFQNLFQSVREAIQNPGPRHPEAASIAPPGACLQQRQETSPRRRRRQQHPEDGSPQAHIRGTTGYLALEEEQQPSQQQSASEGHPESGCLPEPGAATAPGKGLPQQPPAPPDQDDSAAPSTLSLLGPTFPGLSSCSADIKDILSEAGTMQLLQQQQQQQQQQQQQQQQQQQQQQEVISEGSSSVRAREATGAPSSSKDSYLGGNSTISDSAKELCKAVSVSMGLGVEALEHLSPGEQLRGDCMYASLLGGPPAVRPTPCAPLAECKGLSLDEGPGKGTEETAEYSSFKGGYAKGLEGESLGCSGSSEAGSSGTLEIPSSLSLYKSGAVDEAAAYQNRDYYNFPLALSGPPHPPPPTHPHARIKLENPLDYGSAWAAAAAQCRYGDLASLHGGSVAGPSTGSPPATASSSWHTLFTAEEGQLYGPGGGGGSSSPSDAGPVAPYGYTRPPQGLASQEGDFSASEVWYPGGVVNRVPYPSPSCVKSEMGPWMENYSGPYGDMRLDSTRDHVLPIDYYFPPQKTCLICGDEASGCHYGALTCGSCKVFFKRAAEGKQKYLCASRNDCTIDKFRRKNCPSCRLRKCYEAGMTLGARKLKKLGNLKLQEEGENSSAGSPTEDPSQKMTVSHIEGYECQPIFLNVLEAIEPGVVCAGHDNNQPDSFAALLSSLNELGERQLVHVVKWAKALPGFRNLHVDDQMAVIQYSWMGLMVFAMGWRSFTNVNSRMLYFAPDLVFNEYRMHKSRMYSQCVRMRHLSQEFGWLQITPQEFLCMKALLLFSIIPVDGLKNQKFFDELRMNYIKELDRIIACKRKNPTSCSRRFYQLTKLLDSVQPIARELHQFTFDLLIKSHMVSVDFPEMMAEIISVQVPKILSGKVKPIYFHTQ", "assay": "Androgen Receptor Binding Using Rat Ventral Prostate Cytosol", "parameters": "from tissue; host or cells: ventral prostate cytosol of castrated male Sprague Dawley or Wistar rats", "details": "Rat Cytosol; Concentration 1000 nM", "description": "Rat Prostate Cytosol Preparation:\nMale Sprague Dawley or Wistar rats (Charles River, 200-300 g) were used for each preparation. The day before preparing the cytosol, the rats were castrated using standard surgical procedures.\nThe rats were euthanized by carbon dioxide asphyxiation. The rat prostates were quickly removed and placed on ice in pre-chilled, pre-weighed 50 mL plastic tubes. No more than five prostates were placed into one tube. The tubes were then weighed and the prostate tissue wet weights calculated.\nTo the chilled prostate tissue was then added […] of chilled homogenization buffer. The homogenization buffer was freshly prepared by mixing 10 mM Tris.HCl, pH 7.4, 1 mM sodium molybdate, 1.5 mM EDTA, 1 mM dithiothreitol, 10% (v/v) glycerol and 1% protease inhibitor cocktail (Sigma P 8340).\nThe prostate tissue was homogenized in a cold room using a pre-chilled Polytron PT3000 homogenizer (Brinkmann). Homogenization was performed at a speed setting of 20, three times for 10 sec bursts. The tubes containing the prostate tissue was kept on ice while homogenizing. The homogenate was allowed to rest on ice for 20 sec between bursts.\nThe homogenate was then placed into pre-chilled 3 mL polycarbonate ultracentrifuge tubes and centrifuged in the TLA-100 rotor of a TL-100 ultracentrifuge for 12 min at 100,000 rpm at 4° C. The resulting supernatant was stored in 1 mL aliquots at −80° C. until needed.\nBinding to the androgen receptor was determined according to the protocol described in Example 86 using the above prepared rat cytosol.\n% Inhibition was determined by testing dilutions of the test compound (usually duplicates of 10 μM) in the binding assay. Counts per well were measured and percents of inhibition determined. […] Counts per well were measured and IC50s determined by linear regression."}}}
{"smiles": "Cc1ccc(C(=O)OCC(C)(O)c2cc3cc([N+](=O)[O-])c(C(F)(F)F)cc3[nH]2)cc1", "note": "(racemic) [compound 69]", "values": [{"measurement": "IC50", "setting": "[1]", "value": 1200, "unit": "nM"}, {"measurement": "% Inhibition", "setting": "androgen receptor", "value": 31, "unit": "%"}]}
